Where “and” joins values, the source holds several entries; their conditions need not be identical. Identical values can stand only once. Like-named read-outs stand apart in the source and are kept apart here.
Legend:
[1] = molecular target: T1, human GPR40 (Homo sapiens, UniProt O14842); assay: GPR40 binding assay, partial agonist tracer [3H]L358; parameters: expressed in transfected cells; host or cells: CHO / CHO-K1 cells, membrane preparation; conditions: radioligand L-001533358;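 on %Bound: 100% is tracer binding with DMSO alone and 0% is full displacement by a standard compound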
T1 sequence (O14842 whole entry): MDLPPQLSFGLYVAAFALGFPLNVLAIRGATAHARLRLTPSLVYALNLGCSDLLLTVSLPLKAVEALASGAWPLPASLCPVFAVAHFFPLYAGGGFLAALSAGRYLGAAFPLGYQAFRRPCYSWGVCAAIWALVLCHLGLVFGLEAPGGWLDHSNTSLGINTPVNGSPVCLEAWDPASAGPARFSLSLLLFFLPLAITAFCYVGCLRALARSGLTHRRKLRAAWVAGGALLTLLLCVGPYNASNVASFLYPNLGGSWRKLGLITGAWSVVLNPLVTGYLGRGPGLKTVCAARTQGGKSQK
Protocol: Two small molecule tracers, the partial agonist [3H][…] and the AgoPAM [3H]25, are used to measure compound affinity at each site as described previously. Because of the allosteric coupling of the two sites and the nature of the assay, addition of a compound will either displace (binds to same site) or augment (binds to allosterically coupled site) radiotracer. Membranes expressing GPR40 were prepared from CHO cells stably expressing human GPR40. […] Sigma P8830) and were homogenized in 50 ml aliquots with a motor-driven glass Dounce homogenizer, 15 strokes at 1900 rpm on wet ice, repeating once. Homogenates were centrifuged at 2200 rpm for 10 min at 4°C. Supernatants were carefully removed and pooled. Homogenization and centrifugation were repeated until the debris pellet was translucent to maximize membrane recovery. Supernatants were then centrifuged at […] rpm for 20 min. at 4°C. […] Protein concentration was determined by Pierce BCA kit. […] The beads and membrane mixture is then vigorously mixed for 30 minutes at room temperature prior to addition to the assay. […] Next, 15 μl of the radioligand and 35 μl of the beads/membranes solution is added to each well. The assay plates are then sealed and incubated for 30 minutes at room temperature on an orbital shaker. The plates are allowed to settle for 16 hours and then counted on a TopCount scintillation counter (PE). […] Maximal % bound and IC50 are then determined for each test compound. 5 μg/well membrane together with 200 μg/well of PVT WGA SPA beads (GE #RPNG-0001) were suspended in a white 96 well plate with a final concentration of 50 μl/well in assay buffer (50 mM Tris, 10 mM MgCl2, and 2 mM EDTA). […] The plate is briefly mixed and incubated for 3-18 h at room temperature, before it is read on a MicroBeta plate counter (Perkin Elmer, MS, USA).

[2] = molecular target: T2, rat GPR40 (Rattus norvegicus, UniProt Q8K3T4); assay: Rat GPR40 IP1 accumulation assay; assay type: cell-based
T2 construct: expressed in transfected cells; host or cells: CHO-K1 (methods)
T2 sequence (Q8K3T4 whole entry): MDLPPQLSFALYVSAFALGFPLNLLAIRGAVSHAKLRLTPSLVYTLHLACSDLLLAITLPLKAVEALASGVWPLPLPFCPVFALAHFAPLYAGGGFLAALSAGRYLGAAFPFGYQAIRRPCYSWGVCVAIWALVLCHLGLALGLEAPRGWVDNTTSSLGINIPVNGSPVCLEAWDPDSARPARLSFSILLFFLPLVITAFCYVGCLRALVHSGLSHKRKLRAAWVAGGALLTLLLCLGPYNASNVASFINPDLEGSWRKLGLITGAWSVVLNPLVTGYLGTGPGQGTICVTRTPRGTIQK
Protocol: (§1) Stable cell lines expressing human GPR40 (hGPR40/HEK293), mouse GPR40 (mGPR40/CHO-K1), and rat GPR40 (rGPR40/CHO-K1) were cultured in DMEM media supplemented with 10% FBS, glutamine, non-essential amino acids, and penicillin/streptomycin. hGPR40/HEK293 & mGPR40/CHO-K1 cell media was supplemented with […] G418 (Life Technologies), while rGPR40/CHO-K1 cells were grown in […] blasticidin plus […] hygromycin (Life Technologies). Cell stocks were maintained and grown in a sub-confluent state using standard cell culture procedures. The day before the experiment, the cells were harvested with non-enzymatic cell dissociation buffer and re-suspended in DMEM supplemented with 10% FBS, glutamine, non-essential amino acids, penicillin/streptomycin at 0.15, 0.2 and 0.3 million cells per ml for human, mouse, and rat GPR40, respectively. […] The seeded plates were incubated overnight at 37 C.
(§2) On the day of the experiment, the growth media was removed from the assay by gently patting the assay plates on an absorbent sheet and 10 μl of IP1 stimulation buffer (Cis Bio IP-one Tb HTRF kit) supplemented with 50 mM LiCl is added to each well. Test compounds dissolved in DMSO were serially diluted in ½ log increments starting from 2 mM or 0.2 mM and 50 nl of the compound dilution was acoustically added to each well (final starting concentration 10 μM or 1 μM). Plates were then incubated for 60 minutes at room temperature and 10 μl of detection buffer (prepared as described in the Tb kit) is added to each well. The plates are then incubated one additional hour at room temperature. […] For each assay, a standard curve plate in which IP1 is titrated is also included. […] The percent activity at each concentration of test compound is determined using 0% activation (basal activity) determined in those wells that contain DMSO alone, while 100% activity is determined in wells that contained a concentration of a partial allosteric agonist know to activate GPR40. The % activity is then plotted versus the concentration of test compound and the dose response curve fitted to a standard 4-parameter non-linear regression model using a custom in-house developed software package (Merck & Co., Inc., MRL, Kenilworth, NJ, USA). Maximal % activity and EC50 are then determined for each test compound.

[3] = molecular target: T3, mouse GPR40 (Mus musculus, UniProt Q76JU9); assay: Mouse GPR40 IP1 accumulation assay; assay type: cell-based
T3 construct: expressed in transfected cells; host or cells: CHO-K1 (methods)
T3 sequence (Q76JU9 whole entry): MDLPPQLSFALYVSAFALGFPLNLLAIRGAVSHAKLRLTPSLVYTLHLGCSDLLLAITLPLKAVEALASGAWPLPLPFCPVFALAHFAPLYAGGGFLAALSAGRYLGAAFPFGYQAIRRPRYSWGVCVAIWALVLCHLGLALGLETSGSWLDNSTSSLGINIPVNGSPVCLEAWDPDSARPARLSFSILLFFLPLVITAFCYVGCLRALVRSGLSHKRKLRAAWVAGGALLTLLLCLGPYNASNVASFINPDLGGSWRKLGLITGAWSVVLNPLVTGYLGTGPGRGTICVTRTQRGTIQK
Protocol: as §1, §2

[4] = molecular target: T1, human GPR40; assay: Human GPR40 IP1 accumulation assay; assay type: cell-based; parameters: expressed in transfected cells
Protocol: as §1, §2

[5] = maximal % activity vs in-house partial agonist control

C[C@H](C(=O)O)[C@H](c1ccc2c(c1)O[C@H](C1CN(Cc3cc(C(F)(F)F)ccc3C(F)(F)F)C1)CC2)C1CC1 [AP3]
% Bound Normalized to 100 ([1]; dose 0.318285 nM): 82.24% | %Bound ([1]; dose 0.318285 nM): 88.22% | % Bound Normalized to 100 ([1]; dose 1.00578 nM): 93.26% | %Bound ([1]; dose 1.00578 nM): 99.24% | % Bound Normalized to 100 ([1]; dose 3.17827 nM): 115.15% | %Bound ([1]; dose 3.17827 nM): 121.13% | % Bound Normalized to 100 ([1]; dose 10.0433 nM): 125.44% | %Bound ([1]; dose 10.0433 nM): 131.41% | % Bound Normalized to 100 ([1]; dose 31.7369 nM): 126.76% | %Bound ([1]; dose 31.7369 nM): 132.74% | % Bound Normalized to 100 ([1]; dose 100.289 nM): 126.17% | %Bound ([1]; dose 100.289 nM): 132.15% | % Bound Normalized to 100 ([1]; dose 316.912 nM): 135.28% | %Bound ([1]; dose 316.912 nM): 141.26% | % Bound Normalized to 100 ([1]; dose 1001.44 nM): 137.19% | %Bound ([1]; dose 1001.44 nM): 143.17% | % Bound Normalized to 100 ([1]; dose 3164.56 nM): 164.81% | %Bound ([1]; dose 3164.56 nM): 170.79% | % Bound Normalized to 100 ([1]; dose 10000 nM): 174.51% | %Bound ([1]; dose 10000 nM): 180.49% | Rat GPR40 Receptor Activation (%) ([2]; dose 1.50E-11 M): -10% | Rat GPR40 Receptor Activation (%) ([2]; dose 1.55E-08 M): 330% | Rat GPR40 Receptor Activation (%) ([2]; dose 2.43E-10 M): 24% | Rat GPR40 Receptor Activation (%) ([2]; dose 2.49E-07 M): 412% | Rat GPR40 Receptor Activation (%) ([2]; dose 3.89E-09 M): 269% | Rat GPR40 Receptor Activation (%) ([2]; dose 4.00E-12 M): -6.43% | Rat GPR40 Receptor Activation (%) ([2]; dose 6.10E-11 M): -0.311% | Rat GPR40 Receptor Activation (%) ([2]; dose 6.22E-08 M): 389% | Rat GPR40 Receptor Activation (%) ([2]; dose 9.72E-10 M): 121% | Rat GPR40 Receptor Activation (%) ([2]; dose 9.95E-07 M): 389% | %Act, Rat GPR40, Functional Assay ([2]; individual determinations): 265% and 529% and 336% and 568% and 267% and 374% and 399% and 444% and 459% and 365% and 466% and 382% | EC50 ([2]; individual determinations, read-out: EC50 (nM), Rat GPR40, Functional Assay): 0.79 nM and 0.8 nM and 0.9 nM and 1.01 nM and 1.46 nM and 1.5 nM and 2.03 nM and 2.24 nM and 2.29 nM and 0.57 nM and 0.7 nM and 0.75 nM | Efficacy (% Activation), Rat [2, 5]: (405%) | EC50 ([2]; mean ± SD, n = 2–20, IP accumulation, read-out: Potency [EC50, nM] ± SD, Rat): 1.3 ± 0.63 nM | Mouse GPR40 Receptor Activation (%) ([3]; dose 1.50E-11 M): -3.27% | Mouse GPR40 Receptor Activation (%) ([3]; dose 1.55E-08 M): 446% | Mouse GPR40 Receptor Activation (%) ([3]; dose 2.43E-10 M): 50% | Mouse GPR40 Receptor Activation (%) ([3]; dose 2.49E-07 M): 525% | Mouse GPR40 Receptor Activation (%) ([3]; dose 3.89E-09 M): 371% | Mouse GPR40 Receptor Activation (%) ([3]; dose 4.00E-12 M): -5% | Mouse GPR40 Receptor Activation (%) ([3]; dose 6.10E-11 M): 5% | Mouse GPR40 Receptor Activation (%) ([3]; dose 6.22E-08 M): 431% | Mouse GPR40 Receptor Activation (%) ([3]; dose 9.72E-10 M): 174% | %Act, Mouse GPR40, Functional Assay ([3]; individual determinations): 596% and 682% and 213% and 314% and 487% and 456% and 680% and 434% and 501% and 418% | EC50 ([3]; individual determinations, read-out: EC50 (nM), Mouse GPR40, Functional Assay): 0.64 nM and 0.73 nM and 1.06 nM and 1.33 nM and 1.52 nM and 2.22 nM and 2.5 nM and 0.46 nM and 0.58 nM and 0.59 nM | Efficacy (% Activation), Mouse [3, 5]: (478%) | EC50 ([3]; mean ± SD, n = 2–20, IP accumulation, read-out: Potency [EC50, nM] ± SD, Mouse): 1.2 ± 0.72 nM | Human GPR40 Receptor Activation (%) ([4]; dose 1.50E-11 M): -1.6% | Human GPR40 Receptor Activation (%) ([4]; dose 1.55E-08 M): 280% | Human GPR40 Receptor Activation (%) ([4]; dose 2.43E-10 M): 54% | Human GPR40 Receptor Activation (%) ([4]; dose 2.49E-07 M): 306% | Human GPR40 Receptor Activation (%) ([4]; dose 3.89E-09 M): 288% | Human GPR40 Receptor Activation (%) ([4]; dose 4.00E-12 M): -5% | Human GPR40 Receptor Activation (%) ([4]; dose 6.10E-11 M): 7% | Human GPR40 Receptor Activation (%) ([4]; dose 6.22E-08 M): 328% | Human GPR40 Receptor Activation (%) ([4]; dose 9.72E-10 M): 183% | Human GPR40 Receptor Activation (%) ([4]; dose 9.95E-07 M): 328% | %Act, HUMAN GPR40, Functional Assay ([4]; individual determinations): 407% and 332% and 338% and 274% and 324% and 328% and 239% and 282% and 383% and 273% | EC50 ([4]; individual determinations, read-out: EC50 (nM), HUMAN GPR40, Functional Assay): 0.32 nM and 0.43 nM and 0.46 nM and 0.47 nM and 0.73 nM and 0.8 nM and 0.91 nM and 0.19 nM and 0.24 nM and 0.27 nM | Efficacy (% Activation), Human [4, 5]: (318%) | EC50 ([4]; mean ± SD, n = 2–20, IP accumulation, read-out: Potency [EC50, nM] ± SD, Human): 0.48 ± 0.25 nM
